Literature values, collected in patent US12397068B2, “Structural design of a cranial nerve degeneration contrast agent precursors” (INSTITUTE OF NUCLEAR ENERGY RESEARCH, ATOMIC ENERGY …, priority 2022, dated 2025).

Legend:
[1] = system: α-synuclein relative to Aβ and Tau proteins; conditions: in vitro; in words only; background statement
[2] = in words only; background statement
[3] = biological target: α-synuclein fibrils (Homo sapiens, UniProt P37840); conditions: in words only; background statement

Compound | in vitro stability [2] | affinity for α-synuclein [3] | specificity for α-synuclein relative to β-amyloid (Aβ) and Tau [1]
O=C1Nc2ccccc2C1=Cc1ccccc1 |  |  | low specificity
CC[n+]1ccc(/C=C/C=C/c2ccc(N(C)C)cc2)c2ccccc21.[O-][Cl+3]([O-])([O-])[O-] [LDS 798] | low in vitro stability | moderate affinity | reasonable degree in vitro specificity
CN(C)c1ccc(/C=C/C=C/C2=[N+](C)C3=C(CCCC3)C2(C)C)cc1 [LDS 730] | low in vitro stability |  | reasonable degree in vitro specificity

The next lines start with results.

in vitro stability [2] | affinity for α-synuclein [3] | Compound | specificity for α-synuclein relative to β-amyloid (Aβ) and Tau [1]
low in vitro stability |  | COc1ccc2c(c1)Sc1cc([N+](=O)[O-])ccc1N2 [SIL5] | reasonable degree in vitro specificity
low in vitro stability |  | O=[N+]([O-])c1ccc2c(c1)Sc1cc(OC/C=C/[125I])ccc1N2 [SIL23] | reasonable degree in vitro specificity
low in vitro stability |  | O=[N+]([O-])c1ccc2c(c1)Sc1cc(OCCF)ccc1N2 [SIL26] | reasonable degree in vitro specificity
